The target in the assay is FmlH (Escherichia coli, UniProt Q1RBS0). The format is binding, Escherichia coli (UPEC, CFT073). The following applies: for IC50: IC50, ELISA, FmlH binding to desialylated bovine submaxillary mucin, average of four or more replicates; for fold more potent than the matched pair Gal/GalNAc derivative: 50 vs 51, 30 vs 29. (In general: In an ELISA, binding on a coated surface is turned into a signal by an enzyme label.)

Experimental findings from paper PMC6467771 (Journal of medicinal chemistry, 2019) are described below.

Molecules are shown by their SMILES.

As a reminder, the IC50 is the concentration that inhibits the measured activity by half. Lower therefore signals higher potency. Consider `CC(=O)NC1[C@H](Oc2ccccc2-c2cccc(NC(=O)C(F)(F)F)c2)O[C@H](CO)[C@H](O)[C@@H]1O` (stereo in doubt) [Compound 44, N-(2’-(((2S,3S,4R,5R)-3-Acetamido-4,5-dihydroxy-6 (hydroxymethyl)tetrahydro-2H-pyran-2-yl)oxy)-[1,1’-biphenyl]-3-yl)-2,2,2-trifluoroacetamide], for which the IC50 came out at 370 nM.
On the same count and under the same terms, in the case of `CC(=O)N[C@H]1[C@H](Oc2ccccc2-c2cccc(OS(C)(=O)=O)c2)O[C@H](CO)[C@H](O)[C@@H]1O` [Compound 33, 2’-(((2S,3R,4R,5R,6R)-3-Acetamido-4,5-dihydroxy-6-(hydroxymethyl)tetrahydro-2H-pyran-2-yl)oxy)-[1,1’-biphenyl]-3-yl methanesulfonate] it was 890 nM; in that of `CC(=O)N[C@H]1[C@H](Oc2cccc(C#N)c2-c2cccc(NS(C)(=O)=O)c2)O[C@H](CO)[C@H](O)[C@@H]1O` [Compound 79, N-((2S,3S,4R,5R)-2-((6-Cyano-3’-(methylsulfonamido)-[1,1’-bi-phenyl]-2-yl)oxy)-4,5-dihydroxy-6-(hydroxymethyl)tetra’hydro-2H-pyran-3-yl)acetamide], 44 nM; in that of `CC(=O)N[C@H]1[C@H](Oc2ccccc2-c2cccc(C(F)(F)F)c2)O[C@H](CO)[C@H](O)[C@@H]1O` [Compound 40, N-((2S,3R,4R/5R/6R)-4/5-Dihydroxy-6-(hydroxymethyl)-2-((3’-(tri-fluoromethyl)-[1,1’-biphenyl]-2-yl)oxy)tetrahydro-2H-pyran-3-yl) acetamide], 1500 nM.
The compound `CC(=O)N[C@H]1[C@H](Oc2ccccc2-c2cccc(O)c2)O[C@H](CO)[C@H](O)[C@@H]1O` [Compound 32, N-((2S,3R,4R,5R,6R)-4,5-Dihydroxy-2-((3’-hydroxy-[1,1’ biphenyl]-2-yl)oxy)-6-(hydroxymethyl)tetrahydro-2H-pyran-3-yl)-acetamide] displayed an IC50 of 700 nM.
The compound `O=C(O)c1cc(-c2ccccc2O[C@@H]2O[C@H](CO)[C@H](O)[C@H](O)[C@H]2O)cc([N+](=O)[O-])c1` [Compound 30, 5-Nitro-2’-(((2S,3R,4S,5R,6R)-3,4,5-trihydroxy-6-(hydroxymethyl)-tetrahydro-2H-pyran-2-yl)oxy)-[1,1’-biphenyl]-3-carboxylic Acid] showed an IC50 of 280 nM. In addition, for the setting “ELISA IC50 ratio”, the “fold more potent than the matched pair Gal/GalNAc derivative” value is listed as 6 fold.
As for `CC(=O)N[C@H]1[C@H](Oc2ccccc2-c2cccc(CO)c2)O[C@H](CO)[C@H](O)[C@@H]1O` [Compound 42, N-((2S,3R,4R/5R/6R)-4/5-Dihydroxy-6-(hydroxymethyl)-2-((3’-(hy-droxymethyl)-[1,1’-biphenyl]-2-yl)oxy)tetrahydro-2H-pyran-3-yl)-acetamide], the IC50 turned out to be 630 nM. This counts as sub-micromolar.
`CC(=O)N[C@H]1[C@H](Oc2ccccc2-c2cccc(S(C)(=O)=O)c2)O[C@H](CO)[C@H](O)[C@@H]1O` [Compound 41, N-((2S,3R,4R,5R,6R)-4,5-Dihydroxy-6-(hydroxymethyl)-2-((3’- (methylsulfonyl)-[1,1’-biphenyl]-2-yl)oxy)tetrahydro-2H-pyran-3-yl)acetamide] displayed an IC50 of 700 nM.
For the compound `COC(=O)Nc1cccc(-c2ccccc2O[C@@H]2O[C@H](CO)[C@H](O)[C@H](O)[C@H]2NC(C)=O)c1` [Compound 45, Methyl(2’-(((2S,3R/4R/5R,6R)-3-Acetamido-4/5-dihydroxy-6-(hydroxymethyl)tetrahydro-2H-pyran-2-yl)oxy)-[1,1’-biphenyl]-3 yl)carbamate], the 50% inhibitory concentration (IC50) amounted to 630 nM.
Same read-out and setting: then `CS(=O)(=O)Nc1cccc(-c2ccccc2O[C@@H]2O[C@H](CO)[C@H](O)[C@H](O)[C@H]2O)c1` [Compound 51, N-(2’-(((2S,3R,4S,5R,6R)-3,4,5-Trihydroxy-6-(hydroxymethyl)-tetrahydro-2H-pyran-2-yl)oxy)-[1,1’-biphenyl]-3-yl)-methanesulfonamide], with 1600 nM.
The same measure, in the same setting: then `CC(=O)N[C@H]1[C@H](Oc2cccc([N+](=O)[O-])c2-c2cccc(NS(C)(=O)=O)c2)O[C@H](CO)[C@H](O)[C@@H]1O` [Compound 78, N-((2S,3R,4R,5R,6R)-4,5-Dihydroxy-6-(hydroxymethyl)-2-((3’- (methylsulfonamido)-6-nitro-[1,1’-biphenyl]-2-yl)oxy)tetrahydro-2H-pyran-3-yl)acetamide], with 58 nM.
Still for that read-out and setting: then `COc1cccc(-c2ccccc2O[C@@H]2O[C@H](CO)[C@H](O)[C@H](O)[C@H]2NC(C)=O)c1` [Compound 37, N-((2S,3R,4R,5R,6R)-4,5-Dihydroxy-6-(hydroxymethyl)-2-((3’-me-thoxy-[1,1’-biphenyl]-2-yl)oxy)tetrahydro-2H-pyran-3-yl)-acetamide], with 2000 nM; and `COc1ccc(OS(C)(=O)=O)cc1-c1ccccc1O[C@@H]1O[C@H](CO)[C@H](O)[C@H](O)[C@H]1NC(C)=O` [Compound 35, 2’-(((2S,3R,4R,5R,6R)-3-Acetamido-4,5-dihydroxy-6 (hydroxymethyl)tetrahydro-2H-pyran-2-yl)oxy)-6-methoxy-[1,1’-biphenyl]-3-yl Methanesulfonate], with 3700 nM; and `COc1cccc(O[C@@H]2O[C@H](CO)[C@H](O)[C@H](O)[C@H]2NC(C)=O)c1-c1cccc(NS(C)(=O)=O)c1` [Compound 83, N-((2S,3S,4R,5R)-4,5-Dihydroxy-6-(hydroxymethyl)-2-((6-me-thoxy-3 ‘-(methylsulfonamido)-[1,1 ‘-biphenyl]-2-yl)oxy)tetrahydro-2H-pyran-3-yl)acetamide], with 92 nM.
The compound `CC(=O)N[C@H]1[C@H](Oc2ccc3ccccc3c2-c2cccc(NS(C)(=O)=O)c2)O[C@H](CO)[C@H](O)[C@@H]1O` [Compound 85, N-((2S,3R,4R,5R,6R)-4,5-Dihydroxy-6-(hydroxymethyl)-2-((1-(3 (methylsulfonamido)phenyl)naphthalen-2-yl)oxy)tetrahydro-2H-pyran-3-yl)acetamide] returned a half-inhibitory concentration (IC50) of 81 nM.
With `CC(=O)N[C@H]1[C@H](Oc2ccccc2-c2cccc(NS(C)(=O)=O)c2)O[C@H](CO)[C@H](O)[C@@H]1O` [Compound 50, N-((2S,3R,4R,5R,6R)-4,5-Dihydroxy-6-(hydroxymethyl)-2-((3’- (methylsulfonamido)-[1,1’-biphenyl]-2-yl)oxy)tetrahydro-2H-pyran-3-yl)acetamide], the IC50 came out at 230 nM. Where the note is “ELISA IC50 ratio”, the “fold greater potency / improvement in activity relative to 1” value stood at 3 fold and the “fold more potent than the matched pair Gal/GalNAc derivative” value is recorded as “about 5 fold”.
Regarding `COc1ccc(O)cc1-c1ccccc1O[C@@H]1O[C@H](CO)[C@H](O)[C@H](O)[C@H]1NC(C)=O` [Compound 34, N-((2S,3R,4R,5R,6R)-4,5-Dihydroxy-2-((5’-hydroxy-2’ methoxy-[1,1’-biphenyl]-2-yl)oxy)-6-(hydroxymethyl)tetrahydro-2H-pyran-3-yl)acetamide], the IC50 was 510 nM. This counts as sub-micromolar.
Same read-out and setting: in the case of `CC(=O)N[C@H]1[C@H](Oc2ccccc2-c2cccc([N+](=O)[O-])c2)O[C@H](CO)[C@H](O)[C@@H]1O` [Compound 38, N-((2S,3R,4R,5R,6R)-4,5-Dihydroxy-6-(hydroxymethyl)-2-((3’-nitro-[1,1’-biphenyl]-2-yl)oxy)tetrahydro-2H-pyran-3-yl)acetamide] it was 2700 nM.
